Data reported in PMC5333395, “Assessing histone demethylase inhibitors in cells: lessons learned” (Epigenetics & Chromatin, 2017).

How the values were obtained:
KDM5A [1] = biological target: T1, KDM5A (Homo sapiens, UniProt P29375); assay: AlphaScreen in vitro demethylase assay; format: biochemical; conditions: IC50 ± SD (number of replicates)
Protocol: IC50 values were determined as previously described. The following amendments were made to the protocol for carrying out 2-OG competition assays.

KDM5A [2] = biological target: T1, KDM5A; assay: High-content immunofluorescence (IF) assay, overexpressed full-length FLAG-tagged KDM in HeLa cells; format: cell-based; conditions: HeLa cells overexpressing WT KDM5A, H3K4me3 mark, 24 h; for EC50: read-out: KDM5A, in cells, EC50 by IF assay (head: IC50)
Protocol: On day 0, 7000 cells per well were plated on a 96-well clear bottom CellCarrier plate (PerkinElmer, UK). The next day the cells were transfected with Lipofectamine 3000 (ThermoFisher Scientific, UK) following the manufacturer’s instructions. Briefly, 0.1 µg of plasmid DNA (encoding for the respective demethylase) and 0.15 µL of Lipofectamine 3000 were diluted in separate tubes containing 5 µL OptiMEM. 0.15 µL of P3000 was added to the tube with the DNA. The two solutions were then mixed gently and allowed to incubate for 5 min at room temperature. Next, the DNA-lipid complex was added to the cells for 4 h at 37 °C and 5% CO2. Compound dilutions were made in a 96-well PCR plate (Starlab, UK). The culture medium was supplemented with 0.4% DMSO so that the solvent concentration was maintained throughout. Compounds were serially diluted at a 1:2 or 1:3 dilution ratio. Next, the cell culture plate was removed from the incubator and the medium was gently aspirated and replaced with the fresh medium containing diluted compounds.

[3] = test system: Caco-2 human colon carcinoma cell line; assay: Caco-2 permeability; format: in vitro ADME; conditions: P app
Protocol: P app (apparent permeability) was determined in the Caco-2 human colon carcinoma cell line essentially as described in [11].

KDM4C = biological target: T2, KDM4C (Homo sapiens, UniProt Q9H3R0); assay: High-content immunofluorescence (IF) assay, overexpressed full-length FLAG-tagged KDM in HeLa cells; format: cell-based; conditions: HeLa cells overexpressing WT KDM4C, H3K9me3 mark, 24 h; read-out: KDM4C, in cells, EC50 by IF assay (head: IC50)
T2 sequence (Q9H3R0 1-1056): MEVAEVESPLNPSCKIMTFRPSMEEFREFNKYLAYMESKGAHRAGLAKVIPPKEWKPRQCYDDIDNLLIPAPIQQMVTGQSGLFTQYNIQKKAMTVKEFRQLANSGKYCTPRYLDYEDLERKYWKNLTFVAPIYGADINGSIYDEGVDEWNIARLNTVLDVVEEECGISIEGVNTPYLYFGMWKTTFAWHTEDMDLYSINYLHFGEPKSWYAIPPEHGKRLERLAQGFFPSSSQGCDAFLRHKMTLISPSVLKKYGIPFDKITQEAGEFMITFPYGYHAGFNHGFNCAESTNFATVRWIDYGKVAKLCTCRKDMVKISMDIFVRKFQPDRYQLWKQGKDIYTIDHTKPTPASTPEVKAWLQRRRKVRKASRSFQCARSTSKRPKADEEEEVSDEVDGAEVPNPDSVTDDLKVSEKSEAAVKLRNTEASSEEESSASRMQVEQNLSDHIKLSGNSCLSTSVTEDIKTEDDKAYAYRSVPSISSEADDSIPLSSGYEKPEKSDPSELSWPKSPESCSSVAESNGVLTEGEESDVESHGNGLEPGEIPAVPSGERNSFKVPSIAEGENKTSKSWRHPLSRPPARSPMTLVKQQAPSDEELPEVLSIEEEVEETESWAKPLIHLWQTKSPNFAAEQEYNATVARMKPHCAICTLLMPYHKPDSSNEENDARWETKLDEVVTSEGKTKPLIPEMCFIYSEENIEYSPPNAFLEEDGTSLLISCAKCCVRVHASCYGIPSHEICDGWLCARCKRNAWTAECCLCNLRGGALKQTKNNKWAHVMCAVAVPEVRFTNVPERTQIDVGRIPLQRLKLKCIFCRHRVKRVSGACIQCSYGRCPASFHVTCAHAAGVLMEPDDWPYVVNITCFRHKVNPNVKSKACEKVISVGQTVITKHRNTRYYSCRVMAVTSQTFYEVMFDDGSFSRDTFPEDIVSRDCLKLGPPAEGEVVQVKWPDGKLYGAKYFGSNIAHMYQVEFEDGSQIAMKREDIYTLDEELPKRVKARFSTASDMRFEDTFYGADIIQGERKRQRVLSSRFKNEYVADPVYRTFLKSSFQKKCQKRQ
Protocol: HeLa cells (ATCC) were cultured at 37 °C and 5% CO2 in Minimal Essential Media—Eagle (Sigma-Aldrich, UK) supplemented with 10% heat-inactivated foetal calf serum (FCS) (Gibco, UK), and 1% L-glutaMAX (Gibco, UK) in T75 flasks (Sarstedt, UK) and passaged regularly with TrypLE (Life Technologies, UK) before cells reached confluence. On day 0, 7000 cells per well were plated on a 96-well clear bottom CellCarrier plate (PerkinElmer, UK). The next day the cells were transfected with Lipofectamine 3000 (ThermoFisher Scientific, UK) following the manufacturer’s instructions. Briefly, 0.1 µg of plasmid DNA (encoding for the respective demethylase) and 0.15 µL of Lipofectamine 3000 were diluted in separate tubes containing 5 µL OptiMEM. 0.15 µL of P3000 was added to the tube with the DNA. The two solutions were then mixed gently and allowed to incubate for 5 min at room temperature. Next, the DNA-lipid complex was added to the cells for 4 h at 37 °C and 5% CO2.
Compound dilutions were made in a 96-well PCR plate (Starlab, UK). The culture medium was supplemented with 0.4% DMSO so that the solvent concentration was maintained throughout. Compounds were serially diluted at a 1:2 or 1:3 dilution ratio. Next, the cell culture plate was removed from the incubator and the medium was gently aspirated and replaced with the fresh medium containing diluted compounds.
Then cells were rinsed once with PBS and blocked for 30 min at room temperature using 3% v/v foetal calf serum diluted in PBS.

T1 sequence (P29375 whole entry): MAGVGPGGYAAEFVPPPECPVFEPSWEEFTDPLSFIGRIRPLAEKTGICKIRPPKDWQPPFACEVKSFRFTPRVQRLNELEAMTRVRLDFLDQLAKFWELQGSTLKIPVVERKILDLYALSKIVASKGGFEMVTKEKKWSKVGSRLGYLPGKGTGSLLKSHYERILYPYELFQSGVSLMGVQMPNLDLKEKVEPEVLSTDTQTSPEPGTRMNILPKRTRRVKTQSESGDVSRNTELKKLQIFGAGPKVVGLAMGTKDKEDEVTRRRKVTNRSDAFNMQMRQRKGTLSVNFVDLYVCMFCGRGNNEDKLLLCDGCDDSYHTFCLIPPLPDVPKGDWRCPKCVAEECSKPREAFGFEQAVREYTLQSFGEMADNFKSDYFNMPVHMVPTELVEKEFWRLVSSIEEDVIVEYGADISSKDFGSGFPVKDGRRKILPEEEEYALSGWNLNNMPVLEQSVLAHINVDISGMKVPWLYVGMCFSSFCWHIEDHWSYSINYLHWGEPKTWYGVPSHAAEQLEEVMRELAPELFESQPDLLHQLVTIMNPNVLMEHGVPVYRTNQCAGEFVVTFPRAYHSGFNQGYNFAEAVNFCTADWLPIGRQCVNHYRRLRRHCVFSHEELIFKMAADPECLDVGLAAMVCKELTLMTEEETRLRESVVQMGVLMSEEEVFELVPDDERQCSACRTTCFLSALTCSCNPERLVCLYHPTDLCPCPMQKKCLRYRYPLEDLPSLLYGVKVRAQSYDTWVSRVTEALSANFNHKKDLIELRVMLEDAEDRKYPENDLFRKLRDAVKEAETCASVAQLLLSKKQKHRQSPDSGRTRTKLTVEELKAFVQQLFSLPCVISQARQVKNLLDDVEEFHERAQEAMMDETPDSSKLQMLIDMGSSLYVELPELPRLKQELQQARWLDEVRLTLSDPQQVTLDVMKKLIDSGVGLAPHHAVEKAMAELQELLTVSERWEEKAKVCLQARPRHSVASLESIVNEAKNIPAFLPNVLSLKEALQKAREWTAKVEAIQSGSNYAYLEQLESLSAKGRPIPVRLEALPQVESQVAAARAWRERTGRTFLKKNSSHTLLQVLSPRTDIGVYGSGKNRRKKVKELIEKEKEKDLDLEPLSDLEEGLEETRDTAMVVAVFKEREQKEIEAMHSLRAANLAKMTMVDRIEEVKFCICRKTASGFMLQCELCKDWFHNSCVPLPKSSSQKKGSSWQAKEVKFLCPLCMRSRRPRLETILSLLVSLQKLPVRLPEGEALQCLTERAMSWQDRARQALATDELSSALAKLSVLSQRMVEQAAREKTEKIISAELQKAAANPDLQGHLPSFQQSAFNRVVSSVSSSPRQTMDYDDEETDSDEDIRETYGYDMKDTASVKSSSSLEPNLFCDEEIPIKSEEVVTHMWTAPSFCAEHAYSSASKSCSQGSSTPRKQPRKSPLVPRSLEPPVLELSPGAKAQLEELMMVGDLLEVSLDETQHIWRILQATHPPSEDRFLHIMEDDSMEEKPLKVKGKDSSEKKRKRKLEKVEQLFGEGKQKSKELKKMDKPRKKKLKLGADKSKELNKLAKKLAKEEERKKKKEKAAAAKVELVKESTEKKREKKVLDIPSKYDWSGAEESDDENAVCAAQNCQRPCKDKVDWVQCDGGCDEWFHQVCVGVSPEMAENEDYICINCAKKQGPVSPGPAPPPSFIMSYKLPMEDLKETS

For `CCN(CCN(C)C)C(=O)CNCc1cc(C(=O)O)ccn1` [KDOAM-20], the IC50 (KDM5A [1]) was 0.01 ± 0.003 µM and the “KDM5A, in cells, EC50 by IF assay (head: IC50)” value (KDM5A [2]) was “little inhibition”.
With `CCOC(=O)c1ccnc(CNCC(=O)N(CC)CCN(C)C)c1` [KDOAM-21] the “Caco-2 (A to B flux)” value [3] was 5.32e-06 cm/s, the EC50 (KDM4C) was 17.9 µM and the IC50 (KDM5A [1]) was 0.068 ± 0.01 µM. It also gave an EC50 (KDM5A [2]) of 4.8 µM.
With CPI-455 the “Caco-2 (A to B flux)” value [3] was 5.21e-06 cm/s.
For `CCN(CCN(C)C)C(=O)CNCc1cncc(C(N)=O)c1` [KDOAM-32], the EC50 (KDM4C) was > 100 µM and the EC50 (KDM5A [2]) was > 100 µM.
